Assay results from the kinase profiling compilation of Christmann-Franck et al. (2016).
Several values for one entry are separate records, joined by “and”; a condition that tells them apart may be missing. Equal values may be shown once.

How the values were obtained:
Assay in all cases: KINOMEscan competition binding
Settings in all cases: compound 10.0 µM
[1] = target: PAK2 (human) (UniProt Q13177)
[2] = target: RIPK1 (human) (UniProt Q13546)
[3] = test system: ABL1 (human), P00519 [Q252H]
[4] = target: ROS1 (human) (UniProt P08922)
[5] = target: TIE1 (human) (UniProt P35590)
[6] = test system: ABL1 (human), P00519 [H396P]
[7] = target: NTRK2 (human) (UniProt Q16620)
NTRK2 (human), sequence (Q16620 whole entry, looked up): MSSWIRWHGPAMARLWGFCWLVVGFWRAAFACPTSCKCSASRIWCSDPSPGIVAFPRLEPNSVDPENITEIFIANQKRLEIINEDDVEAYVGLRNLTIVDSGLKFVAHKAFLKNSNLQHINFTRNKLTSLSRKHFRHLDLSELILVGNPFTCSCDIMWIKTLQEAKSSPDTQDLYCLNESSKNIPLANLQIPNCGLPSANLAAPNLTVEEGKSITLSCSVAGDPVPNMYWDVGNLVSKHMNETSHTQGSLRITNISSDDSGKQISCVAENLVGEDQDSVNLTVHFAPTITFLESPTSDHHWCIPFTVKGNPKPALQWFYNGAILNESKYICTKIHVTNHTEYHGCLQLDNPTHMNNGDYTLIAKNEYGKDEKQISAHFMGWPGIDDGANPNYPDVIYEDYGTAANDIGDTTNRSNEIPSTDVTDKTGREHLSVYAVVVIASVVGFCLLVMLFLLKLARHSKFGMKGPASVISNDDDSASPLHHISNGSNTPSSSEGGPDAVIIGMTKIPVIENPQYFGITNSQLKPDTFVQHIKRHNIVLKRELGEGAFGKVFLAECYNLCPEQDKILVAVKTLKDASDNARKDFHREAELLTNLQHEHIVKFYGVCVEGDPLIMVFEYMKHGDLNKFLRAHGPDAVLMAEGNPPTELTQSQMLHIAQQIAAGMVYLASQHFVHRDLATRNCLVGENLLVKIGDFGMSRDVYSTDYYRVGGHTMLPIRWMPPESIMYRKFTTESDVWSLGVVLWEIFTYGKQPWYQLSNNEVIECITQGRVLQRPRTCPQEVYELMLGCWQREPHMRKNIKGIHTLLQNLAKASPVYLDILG

[8] = target: MST4 (human) (UniProt Q9P289)
[9] = target: MLTK (human) (UniProt Q9NYL2)
[10] = target: EGFR (human) (UniProt P00533)
[11] = target: CHEK1 (human) (UniProt O14757)
CHEK1 (human), sequence (O14757 whole entry, looked up): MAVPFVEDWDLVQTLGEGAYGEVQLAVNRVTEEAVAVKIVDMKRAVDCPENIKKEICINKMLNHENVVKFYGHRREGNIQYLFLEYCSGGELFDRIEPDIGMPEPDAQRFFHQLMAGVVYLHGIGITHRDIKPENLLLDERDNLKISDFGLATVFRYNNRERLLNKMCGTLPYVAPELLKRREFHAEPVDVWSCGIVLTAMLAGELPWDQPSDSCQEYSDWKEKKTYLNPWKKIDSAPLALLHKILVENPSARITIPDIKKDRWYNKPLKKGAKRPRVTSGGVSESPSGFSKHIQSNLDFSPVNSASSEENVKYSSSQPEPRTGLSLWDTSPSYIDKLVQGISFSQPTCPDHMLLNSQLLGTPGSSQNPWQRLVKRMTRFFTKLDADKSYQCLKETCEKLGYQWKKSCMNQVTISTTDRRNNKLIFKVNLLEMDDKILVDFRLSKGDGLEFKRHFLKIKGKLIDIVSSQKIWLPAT

[12] = target: DCLK2 (human) (UniProt Q8N568)
[13] = target: INSR (human) (UniProt P06213)
[14] = target: FGFR2 (human) (UniProt P21802)
FGFR2 (human), sequence (P21802 whole entry, looked up): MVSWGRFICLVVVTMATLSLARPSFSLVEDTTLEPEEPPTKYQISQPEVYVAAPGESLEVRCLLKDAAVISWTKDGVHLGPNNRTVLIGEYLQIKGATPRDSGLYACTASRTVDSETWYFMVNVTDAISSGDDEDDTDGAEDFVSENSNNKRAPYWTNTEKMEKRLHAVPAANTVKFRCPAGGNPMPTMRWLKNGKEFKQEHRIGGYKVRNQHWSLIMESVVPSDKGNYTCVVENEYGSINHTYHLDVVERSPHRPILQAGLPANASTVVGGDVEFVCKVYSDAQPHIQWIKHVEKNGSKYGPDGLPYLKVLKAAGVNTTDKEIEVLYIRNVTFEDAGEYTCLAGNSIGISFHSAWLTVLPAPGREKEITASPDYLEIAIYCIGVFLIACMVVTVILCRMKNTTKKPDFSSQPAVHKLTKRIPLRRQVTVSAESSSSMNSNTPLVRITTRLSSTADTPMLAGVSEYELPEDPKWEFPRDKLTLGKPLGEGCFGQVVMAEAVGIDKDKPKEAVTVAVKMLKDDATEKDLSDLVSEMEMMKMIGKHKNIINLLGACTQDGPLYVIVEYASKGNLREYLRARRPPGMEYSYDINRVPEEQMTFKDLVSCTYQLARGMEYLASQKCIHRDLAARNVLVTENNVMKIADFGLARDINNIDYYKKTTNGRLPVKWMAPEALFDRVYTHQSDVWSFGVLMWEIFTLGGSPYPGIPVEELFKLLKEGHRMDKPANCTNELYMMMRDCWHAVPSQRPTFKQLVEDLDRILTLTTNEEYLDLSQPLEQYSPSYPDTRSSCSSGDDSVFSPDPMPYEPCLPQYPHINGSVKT

[15] = target: CDK11B (human) (UniProt P21127)
[16] = target: STK32B (human) (UniProt Q9NY57)
[17] = target: STK35 (human) (UniProt Q8TDR2)
[18] = target: EPHA8 (human) (UniProt P29322)
[19] = target: FLT1 (human) (UniProt P17948)
FLT1 (human), sequence (P17948 whole entry, looked up): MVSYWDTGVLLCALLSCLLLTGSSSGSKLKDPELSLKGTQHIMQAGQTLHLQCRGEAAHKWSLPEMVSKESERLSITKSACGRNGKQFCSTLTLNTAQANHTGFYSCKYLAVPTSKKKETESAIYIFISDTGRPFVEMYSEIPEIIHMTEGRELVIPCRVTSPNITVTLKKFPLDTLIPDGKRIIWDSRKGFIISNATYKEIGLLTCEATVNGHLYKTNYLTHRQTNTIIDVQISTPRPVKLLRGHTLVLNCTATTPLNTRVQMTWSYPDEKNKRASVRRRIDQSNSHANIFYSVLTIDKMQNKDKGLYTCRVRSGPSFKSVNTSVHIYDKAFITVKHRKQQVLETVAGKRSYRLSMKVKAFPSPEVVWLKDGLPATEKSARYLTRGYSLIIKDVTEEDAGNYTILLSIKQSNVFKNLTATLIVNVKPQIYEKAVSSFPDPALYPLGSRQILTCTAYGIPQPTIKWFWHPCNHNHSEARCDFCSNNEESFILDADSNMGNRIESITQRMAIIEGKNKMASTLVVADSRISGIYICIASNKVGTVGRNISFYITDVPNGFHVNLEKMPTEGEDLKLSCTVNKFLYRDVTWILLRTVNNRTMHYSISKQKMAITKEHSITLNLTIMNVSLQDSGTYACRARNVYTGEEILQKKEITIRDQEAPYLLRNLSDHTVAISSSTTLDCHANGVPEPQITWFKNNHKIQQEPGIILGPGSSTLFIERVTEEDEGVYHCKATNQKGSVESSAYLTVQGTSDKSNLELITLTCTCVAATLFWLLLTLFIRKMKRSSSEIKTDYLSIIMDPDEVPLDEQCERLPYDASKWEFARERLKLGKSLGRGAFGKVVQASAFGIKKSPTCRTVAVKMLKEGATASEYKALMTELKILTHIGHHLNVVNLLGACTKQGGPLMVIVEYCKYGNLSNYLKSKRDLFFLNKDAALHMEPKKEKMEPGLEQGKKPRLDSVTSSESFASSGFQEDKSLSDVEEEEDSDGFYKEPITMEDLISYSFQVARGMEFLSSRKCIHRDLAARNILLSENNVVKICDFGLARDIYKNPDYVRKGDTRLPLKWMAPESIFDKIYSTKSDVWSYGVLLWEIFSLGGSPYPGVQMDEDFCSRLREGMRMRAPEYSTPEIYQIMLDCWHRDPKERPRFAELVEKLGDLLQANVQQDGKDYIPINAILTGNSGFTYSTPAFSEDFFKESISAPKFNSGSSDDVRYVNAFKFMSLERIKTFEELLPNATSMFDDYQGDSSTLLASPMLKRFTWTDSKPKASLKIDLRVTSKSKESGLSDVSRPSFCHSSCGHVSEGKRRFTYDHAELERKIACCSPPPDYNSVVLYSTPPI

[20] = target: BMX (human) (UniProt P51813)
[21] = target: CDC2L2 (human) (UniProt Q9UQ88)
[22] = target: LIMK2 (human) (UniProt P53671)
[23] = target: PRKCD (human) (UniProt Q05655)
[24] = target: TGFBR1 (human) (UniProt P36897)
TGFBR1 (human), sequence (P36897 whole entry, looked up): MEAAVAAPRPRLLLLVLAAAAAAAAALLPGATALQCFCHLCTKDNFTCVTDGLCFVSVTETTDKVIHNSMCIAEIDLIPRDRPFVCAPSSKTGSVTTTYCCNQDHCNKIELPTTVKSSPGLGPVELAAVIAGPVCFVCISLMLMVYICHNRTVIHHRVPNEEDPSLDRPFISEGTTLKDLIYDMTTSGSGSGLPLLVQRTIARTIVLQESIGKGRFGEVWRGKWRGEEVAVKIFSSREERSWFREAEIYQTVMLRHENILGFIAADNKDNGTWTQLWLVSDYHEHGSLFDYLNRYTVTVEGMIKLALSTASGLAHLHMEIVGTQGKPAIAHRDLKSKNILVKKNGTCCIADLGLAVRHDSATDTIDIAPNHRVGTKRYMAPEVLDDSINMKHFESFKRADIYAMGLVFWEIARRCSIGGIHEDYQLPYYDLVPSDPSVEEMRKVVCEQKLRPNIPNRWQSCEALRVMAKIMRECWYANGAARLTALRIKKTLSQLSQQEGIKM

[25] = target: ABL1 (human) (UniProt P00519)
[26] = target: TXK (human) (UniProt P42681)
[27] = target: RPS6KA6 KD1 (human) (UniProt Q9UK32)
[28] = target: MAPK14 (human) (UniProt Q16539)
[29] = target: MAPK7 (human) (UniProt Q13164)
[30] = target: ULK1 (human) (UniProt O75385)
[31] = target: JAK2 JH1 catalytic (human) (UniProt O60674)
[32] = target: NEK6 (human) (UniProt Q9HC98)
[33] = target: MAP2K1 (human) (UniProt Q02750)
MAP2K1 (human), sequence (Q02750 whole entry, looked up): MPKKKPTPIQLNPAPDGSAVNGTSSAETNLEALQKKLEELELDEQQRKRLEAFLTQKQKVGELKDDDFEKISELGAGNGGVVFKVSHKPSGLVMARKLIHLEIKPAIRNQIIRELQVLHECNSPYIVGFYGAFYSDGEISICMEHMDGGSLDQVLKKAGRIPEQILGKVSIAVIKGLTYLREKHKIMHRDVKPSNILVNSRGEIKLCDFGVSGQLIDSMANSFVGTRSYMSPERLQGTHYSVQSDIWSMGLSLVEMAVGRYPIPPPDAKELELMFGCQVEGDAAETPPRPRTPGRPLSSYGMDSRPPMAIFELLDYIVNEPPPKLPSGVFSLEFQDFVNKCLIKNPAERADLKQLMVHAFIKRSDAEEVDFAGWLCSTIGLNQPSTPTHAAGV

[34] = target: SIK1 (human) (UniProt P57059)
[35] = target: PIK3CD (human) (UniProt O00329)
[36] = target: SRPK1 (human) (UniProt Q96SB4)
[37] = target: PRKCQ (human) (UniProt Q04759)
[38] = target: CDK17 (human) (UniProt Q00537)
[39] = target: DDR1 (human) (UniProt Q08345)
[40] = target: NTRK1 (human) (UniProt P04629)
[41] = target: STK4 (human) (UniProt Q13043)
[42] = target: ERBB4 (human) (UniProt Q15303)

PAK2 (human), sequence (Q13177 whole entry, looked up): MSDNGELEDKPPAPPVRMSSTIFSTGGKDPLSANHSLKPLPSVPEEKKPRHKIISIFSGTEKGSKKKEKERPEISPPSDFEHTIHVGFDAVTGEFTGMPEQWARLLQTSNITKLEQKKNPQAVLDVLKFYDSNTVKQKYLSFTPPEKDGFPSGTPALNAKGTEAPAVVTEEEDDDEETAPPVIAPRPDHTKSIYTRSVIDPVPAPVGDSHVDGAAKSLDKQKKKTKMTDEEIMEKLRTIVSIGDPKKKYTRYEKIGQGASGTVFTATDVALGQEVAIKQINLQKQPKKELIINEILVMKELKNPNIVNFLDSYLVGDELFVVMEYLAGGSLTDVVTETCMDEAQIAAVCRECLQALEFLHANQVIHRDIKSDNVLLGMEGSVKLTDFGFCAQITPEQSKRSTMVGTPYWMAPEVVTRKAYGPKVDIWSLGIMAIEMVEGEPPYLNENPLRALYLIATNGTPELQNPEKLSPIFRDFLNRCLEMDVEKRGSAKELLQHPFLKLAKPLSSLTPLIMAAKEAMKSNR

## CN1CCN(c2ccc(C(=O)Nc3ncc4c(n3)N(C)c3ccccc3C(=O)N4C)cc2)CC1
[1]
  kinase still bound, per cent of control: 100%
[2]
  kinase still bound, per cent of control: 100%
[3]
  kinase still bound, per cent of control: 100%
[4]
  kinase still bound, per cent of control: 100%
[5]
  kinase still bound, per cent of control: 100%
[6]
  kinase still bound, per cent of control: 88%
[7]
  kinase still bound, per cent of control: 69%
[8]
  kinase still bound, per cent of control: 100%
[9]
  kinase still bound, per cent of control: 100%
[10]
  kinase still bound, per cent of control: 100%
[11]
  kinase still bound, per cent of control: 100%
[12]
  kinase still bound, per cent of control: 22%
[13]
  kinase still bound, per cent of control: 100%
[14]
  kinase still bound, per cent of control: 100%
[15]
  kinase still bound, per cent of control: 100%
[16]
  kinase still bound, per cent of control: 100%
[17]
  kinase still bound, per cent of control: 100%
[18]
  kinase still bound, per cent of control: 92%
[19]
  kinase still bound, per cent of control: 100%
[20]
  kinase still bound, per cent of control: 100%
[21]
  kinase still bound, per cent of control: 100%
[22]
  kinase still bound, per cent of control: 100%
[23]
  kinase still bound, per cent of control: 100%
[24]
  kinase still bound, per cent of control: 100%
[25]
  kinase still bound, per cent of control: 85%
[26]
  kinase still bound, per cent of control: 100%
[27]
  kinase still bound, per cent of control: 100%
[28]
  kinase still bound, per cent of control: 100%
[29]
  kinase still bound, per cent of control: 65%
[30]
  kinase still bound, per cent of control: 78%
[31]
  kinase still bound, per cent of control: 6.2%
[32]
  kinase still bound, per cent of control: 100%
[33]
  kinase still bound, per cent of control: 100%
[34]
  kinase still bound, per cent of control: 100%
[35]
  kinase still bound, per cent of control: 100%
[36]
  kinase still bound, per cent of control: 100%
[37]
  kinase still bound, per cent of control: 100%
[38]
  kinase still bound, per cent of control: 100%
[39]
  kinase still bound, per cent of control: 100%
[40]
  kinase still bound, per cent of control: 82%
[41]
  kinase still bound, per cent of control: 93%
[42]
  kinase still bound, per cent of control: 100%

## O=C1NC(=O)/C(=C/c2c[nH]c(=O)c(-c3ccc(N4CCNCC4)nc3)c2)S1
[1]
  kinase still bound, per cent of control: 53%
[2]
  kinase still bound, per cent of control: 82%
[3]
  kinase still bound, per cent of control: 53%
[4]
  kinase still bound, per cent of control: 100%
[5]
  kinase still bound, per cent of control: 64%
[6]
  kinase still bound, per cent of control: 96%
[7]
  kinase still bound, per cent of control: 86%
[8]
  kinase still bound, per cent of control: 80%
[9]
  kinase still bound, per cent of control: 92%
[10]
  kinase still bound, per cent of control: 73% and 89%
[11]
  kinase still bound, per cent of control: 2.4%
[12]
  kinase still bound, per cent of control: 67%
[13]
  kinase still bound, per cent of control: 54%
[14]
  kinase still bound, per cent of control: 100%
[15]
  kinase still bound, per cent of control: 100%
[16]
  kinase still bound, per cent of control: 100%
[17]
  kinase still bound, per cent of control: 79%
[18]
  kinase still bound, per cent of control: 76%
[19]
  kinase still bound, per cent of control: 93%
[20]
  kinase still bound, per cent of control: 94%
[21]
  kinase still bound, per cent of control: 95%
[22]
  kinase still bound, per cent of control: 82%
[23]
  kinase still bound, per cent of control: 32%
[24]
  kinase still bound, per cent of control: 48%
[25]
  kinase still bound, per cent of control: 91%
[26]
  kinase still bound, per cent of control: 80%
[27]
  kinase still bound, per cent of control: 34%
[28]
  kinase still bound, per cent of control: 100%
[29]
  kinase still bound, per cent of control: 48%
[30]
  kinase still bound, per cent of control: 21%
[31]
  kinase still bound, per cent of control: 14%
[32]
  kinase still bound, per cent of control: 100%
[33]
  kinase still bound, per cent of control: 55%
[34]
  kinase still bound, per cent of control: 100%
[35]
  kinase still bound, per cent of control: 0%
[36]
  kinase still bound, per cent of control: 25%
[37]
  kinase still bound, per cent of control: 44%
[38]
  kinase still bound, per cent of control: 85%
[39]
  kinase still bound, per cent of control: 100%
[40]
  kinase still bound, per cent of control: 78%
[41]
  kinase still bound, per cent of control: 96%
[42]
  kinase still bound, per cent of control: 68%

## CN1C(=O)c2ccccc2N(C)c2nc(Nc3ccc(N4CCC(O)CC4)cc3)ncc21
[1]
  kinase still bound, per cent of control: 81%
[2]
  kinase still bound, per cent of control: 100%
[3]
  kinase still bound, per cent of control: 2.1%
[4]
  kinase still bound, per cent of control: 35%
[5]
  kinase still bound, per cent of control: 59%
[6]
  kinase still bound, per cent of control: 0.15%
[7]
  kinase still bound, per cent of control: 36%
[8]
  kinase still bound, per cent of control: 27%
[9]
  kinase still bound, per cent of control: 100%
[10]
  kinase still bound, per cent of control: 100%
[11]
  kinase still bound, per cent of control: 76%
[12]
  kinase still bound, per cent of control: 0.6%
[13]
  kinase still bound, per cent of control: 80%
[14]
  kinase still bound, per cent of control: 63%
[15]
  kinase still bound, per cent of control: 100%
[16]
  kinase still bound, per cent of control: 100%
[17]
  kinase still bound, per cent of control: 96%
[18]
  kinase still bound, per cent of control: 100%
[19]
  kinase still bound, per cent of control: 94%
[20]
  kinase still bound, per cent of control: 89%
[21]
  kinase still bound, per cent of control: 100%
[22]
  kinase still bound, per cent of control: 100%
[23]
  kinase still bound, per cent of control: 100%
[24]
  kinase still bound, per cent of control: 73%
[25]
  kinase still bound, per cent of control: 3.2%
[26]
  kinase still bound, per cent of control: 85%
[27]
  kinase still bound, per cent of control: 61%
[28]
  kinase still bound, per cent of control: 100%
[29]
  kinase still bound, per cent of control: 0.25%
[30]
  kinase still bound, per cent of control: 16%
[31]
  kinase still bound, per cent of control: 1.3%
[32]
  kinase still bound, per cent of control: 96%
[33]
  kinase still bound, per cent of control: 100%
[34]
  kinase still bound, per cent of control: 79%
[35]
  kinase still bound, per cent of control: 58%
[36]
  kinase still bound, per cent of control: 100%
[37]
  kinase still bound, per cent of control: 92%
[38]
  kinase still bound, per cent of control: 90%
[39]
  kinase still bound, per cent of control: 68%
[40]
  kinase still bound, per cent of control: 64%
[41]
  kinase still bound, per cent of control: 80%
[42]
  kinase still bound, per cent of control: 100%
